According to patent US20220204497A1, “NOVEL COMPOUND HAVING ANTICANCER ACTIVITY, AND METHOD FOR PRODUCING SAME” (MEDICINAL BIOCONVERGENCE RESEARCH CENTER, priority 2019, published 2022):

Each compound was assayed on A549 cells (assay: Cell viability by MTT method in A549 cells). Details: 72 hours treatment.
Type: cell-based
Design: concentration or dose not given beside the values

| SMILES | Cell Viability (% inhibition) (A549) [%] |
| --- | --- |
| Cc1ccc(S(=O)(=O)N[C@@H](Cc2c[nH]c3ccccc23)C(=O)NCCCc2ccccc2)cc1 [Compound 206, (S)-3-(1H-indol-3-yl)-2-(4-methylphenylsulfonamido)-N-(3-phenylpropyl)propanamide] | 67.48 ± 2.35 |
| Cc1ccc(S(=O)(=O)N[C@@H](Cc2c[nH]c3ccccc23)C(=O)NCCc2ccc(F)cc2)cc1 [Compound 207, (S)—N-(4-fluorophenethyl)-3-(1H-indol-3-yl)-2-(4-methylphenylsulfonamido)propanamide] | 64.02 ± 2.15 |
| Cc1ccc(S(=O)(=O)N[C@@H](Cc2c[nH]c3ccccc23)C(=O)Nc2nc(-c3ccc(C(F)(F)F)cc3)cs2)cc1 [Compound 208, (S)-3-(1H-indol-3-yl)-2-(4-methylphenylsulfonamido)-N-(4-(4-(trifluoromethyl)phenyl)thiazol-2-yl)propanamide] | 82.89 ± 1.06 |
| O=C(NCCc1c[nH]c2ccccc12)[C@H](Cc1c[nH]c2ccccc12)NS(=O)(=O)c1ccc(Br)cc1 [Compound 209, (S)—N-(2-(1H-indol-3-yl)ethyl)-2-(4-bromophenylsulfonamido)-3-(1H-indol-3-yl)propanamide] | 89.27 ± 0.77 |
| COc1ccc(-c2csc(NC(=O)[C@H](Cc3c[nH]c4ccccc34)NC(=O)c3ccc(C)cc3)n2)cc1 [Compound 210, (S)—N-(3-(1H-indol-3-yl)-1-((4-(4-methoxyphenyl)thiazol-2-yl)amino)-1-oxopropan-2-yl)-4-methylbenzamide] | 40.83 ± 8.13 |
| COc1ccc(-c2csc(NC(=O)[C@H](Cc3c[nH]c4ccccc34)NS(=O)(=O)c3ccc(Cl)cc3)n2)cc1 [Compound 211, (S)-2-(4-Chlorophenylsulfonamido)-3-(1H-indol-3-yl)-N-(4-(4-methoxyphenyl)thiazol-2-yl)propanamide] | 83.3 ± 1.04 |
| COc1ccc(-c2csc(NC(=O)[C@H](Cc3c[nH]c4ccccc34)NS(=O)(=O)c3ccc(C(F)(F)F)cc3)n2)cc1 [Compound 212, (S)-3-(1H-indol-3-yl)-N-(4-(4-methoxyphenyl)thiazol-2-yl)-2-(4-(trifluoromethyl)phenylsulfonamido)propanamide] | 84.25 ± 0.99 |
| COc1ccc(-c2csc(NC(=O)[C@H](Cc3c[nH]c4ccccc34)NS(=O)(=O)c3ccc(F)cc3)n2)cc1 [Compound 213, (S)-2-(4-Fluorophenylsulfonamido)-3-(1H-indol-3-yl)-N-(4-(4-methoxyphenyl)thiazol-2-yl)propanamide] | 83.29 ± 1.04 |
| C[C@]12C[C@@H]3C[C@](C)(C1)C[C@@](NC(=O)[C@H](Cc1c[nH]c4ccccc14)NS(=O)(=O)c1ccc(Br)cc1)(C3)C2 [Compound 214, (S)-2-(4-Bromophenylsulfonamido)-N-((1r,3R,5S,7S)-3,5-dimethyladamantan-1-yl)-3-(1H-indol-3-yl)propanamide] | 86.93 ± 0.26 |
| Cc1ccc(C(=O)N[C@@H](Cc2c[nH]c3ccccc23)C(=O)OCc2ccccc2)cc1 [Compound 216, (S)-Benzyl 3-(1H-indol-3-yl)-2-(4-methylbenzamido)propanoate] | 69.96 ± 2.46 |
| COC(=O)c1ccc(-c2csc(NC(=O)[C@H](Cc3c[nH]c4ccccc34)NS(=O)(=O)c3ccc(C)cc3)n2)cc1 [Compound 227, (S)-Methyl 4-(2-(3-(1H-indol-3-yl)-2-(4-methylphenylsulfonamido)propanamido)thiazol-4-yl)benzoate] | 84.63 ± 0.51 |
| Cc1ccc(S(=O)(=O)N[C@@H](Cc2c[nH]c3ccccc23)C(=O)Nc2nc(-c3ccc(C(=O)O)cc3)cs2)cc1 [Compound 228, (S)-4-(2-(3-(1H-indol-3-yl)-2-(4-methylphenylsulfonamido)propanamido)thiazol-4-yl)benzoic acid] | 48.75 ± 5.85 |
| COc1ccc(-c2csc(NC(=O)[C@H](CNc3nc4ccccc4o3)NS(=O)(=O)c3ccc(C)cc3)n2)cc1 [Compound 229, (S)-3-(Benzo[d]oxazol-2-ylamino)-N-(4-(4-methoxyphenyl)thiazol-2-yl)-2-(4-methylphenylsulfonamido)propanamide] | 74.91 ± 2.05 |
| COc1ccc(-c2csc(NC(=O)[C@H](CNC(=O)c3ccccc3)NS(=O)(=O)c3ccc(C)cc3)n2)cc1 [Compound 230, (S)—N-(3-((4-(4-methoxyphenyl)thiazol-2-yl)amino)-2-(4-methylphenylsulfonamido)-3-oxopropyl)benzamide] | 71.56 ± 1.67 |
| COc1ccc(-c2csc(NC(=O)[C@H](CNC(=O)c3cccnc3)NS(=O)(=O)c3ccc(C)cc3)n2)cc1 [Compound 231, (S)—N-(3-((4-(4-methoxyphenyl)thiazol-2-yl)amino)-2-(4-methylphenylsulfonamido)-3-oxopropyl)nicotinamide] | 47.63 ± 5.89 |
| COc1ccc(-c2csc(NC(=O)[C@H](CNC(=O)c3cncnc3)NS(=O)(=O)c3ccc(C)cc3)n2)cc1 [Compound 232, (S)—N-(3-((4-(4-methoxyphenyl)thiazol-2-yl)amino)-2-(4-methylphenylsulfonamido)-3-oxopropyl)pyrimidine-5-carboxamide] | 40.98 ± 2.65 |

What follows are compounds tested against T1, AIMP2-DX2 (Homo sapiens, UniProt Q13155) (assay: DX2-nanoluciferase assay (DX2 expression change) in transfected A549 cells). Details: A549, 4 h, read-out: DX-Nanoluciferase activity (10 μM), 10 μM, 4 hours treatment, A549 cells transfected with nanoluciferase-DX2.
T1 sequence (Q13155 1-251 isoform Q13155-2): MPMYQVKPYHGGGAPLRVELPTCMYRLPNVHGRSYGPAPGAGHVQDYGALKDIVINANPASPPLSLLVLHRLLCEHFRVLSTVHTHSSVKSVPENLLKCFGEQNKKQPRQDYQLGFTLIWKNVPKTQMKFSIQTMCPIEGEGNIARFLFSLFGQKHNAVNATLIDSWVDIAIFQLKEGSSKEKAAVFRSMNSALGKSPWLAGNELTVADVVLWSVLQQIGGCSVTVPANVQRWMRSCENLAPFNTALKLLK
Description: After cloning DX2 into a plasmid expressing nanoluciferase, the plasmid was transfected into A549 cells. Transfected cells were seeded 1×10^4 per well in a 96-well plate and stabilized for 12 hours. […] Cell viability was measured by the MTT method after 72 hours of treatment with each concentration of the compound in A549 cells.

| SMILES | inhibition at 10 µM [%] |
| --- | --- |
| COc1cc(N2CCN(C(C)=O)CC2)ccc1NC(=O)[C@H](Cc1c[nH]c2ccccc12)NS(=O)(=O)c1ccc(C)cc1 [Compound 161, (S)—N-(4-(4-Acetylpiperazin-1-yl)-2-methoxyphenyl)-3-(1H-indol-3-yl)-2-(4-methylphenylsulfonamido)propanamide] | 25.2 ± 9.86 |

Same assay, conditions: A549, 4 h, read-out: DX-Nanoluciferase activity (40 μM), 40 μM, 4 hours treatment, A549 cells transfected with nanoluciferase-DX2; inhibitory effect on AIMP2-DX2 expression

| SMILES | inhibition at 40 µM [%] |
| --- | --- |
| Cc1ccc(S(=O)(=O)N[C@@H](CC(=O)O)C(=O)Nc2ccc(N3CCOCC3)cc2)cc1 [Compound 145, (S)-3-(4-Methylphenylsulfonamido)-4-(4-morpholinophenylamino)-4-oxobutanoic acid] | -11.1 ± 19.2 |
| Cc1ccc(S(=O)(=O)N[C@@H](Cc2c[nH]c3ccccc23)C(=O)NCc2cccs2)cc1 [Compound 150, (S)-3-(1H-indol-3-yl)-2-(4-methylphenylsulfonamido)-N-(thiophen-2-ylmethyl)propanamide] | -17.7 ± 16.6 |
| CC(=O)Nc1cccc(S(=O)(=O)N[C@@H](CC(C)C)C(=O)N2CCOCC2)c1 [Compound 153, (S)—N-(3-(N-(4-methyl-1-morpholino-1-oxopentan-2-yl)sulfamoyl)phenyl)acetamide] | 26.9 ± 6.7 |
| CC(C)C[C@H](NC(=O)Nc1ccccc1)C(=O)OCc1ccccc1 [Compound 154, (S)-Benzyl 4-methyl-2-(3-phenylureido)pentanoate] | 40.5 ± 7.7 |
| Cc1ccc(S(=O)(=O)N[C@@H](Cc2c[nH]c3ccccc23)C(=O)NCc2ccco2)cc1 [Compound 178, (S)—N-(furan-2-ylmethyl)-3-(1H-indol-3-yl)-2-(4-methylphenylsulfonamido)propanamide] | 1.52 ± 5.08 |
| O=C(NCc1ccco1)[C@H](Cc1c[nH]c2ccccc12)NS(=O)(=O)c1ccc(Br)cc1 [Compound 179, (S)-2-(4-Bromophenylsulfonamido)-N-(furan-2-ylmethyl)-3-(1H-indol-3-yl)propanamide] | -4.97 ± 1.37 |
